The target of experiment [1] is T1, hACSL5 (Homo sapiens (Human), UniProt Q9ULC5). Description: Cell-based assay (CBA) with B12FA in hACSL5-transfected Expi293F / FlpIn TRex293 cells. The conditions noted are these: hACSL5-expressing cells. An excerpt:
To assess the cell penetration and cellular activity of the compounds, a cell-based assay (CBA) was used to detect compound potency in living cells. The assay utilized the fluorescent fatty acid analogue B12FA, a boron-dipyrromethene (BODIPY™) labelled C12 fatty acid that can be incorporated into glycerophosphocholine in the cytoplasmic oil droplets of live cells. A concentration-dependent, red-shifted fluorescence can be induced by the formation of BODIPY™ excimers in the oil droplets.
Expi293F cells transfected with full length hACSL5 plasmid were selected using 1 mg/mL G418 culture medium and clones were selected by in vitro whole cell lysate (WCL) assay. The cell passage number used in the Expi293 CBA assay could not be used beyond 10 passages due to a decrease in hACSL5 expression. Therefore, a CBA using FlpIn TRex293 cells for inducible expression of hACSL5 was also established.
FlpIn TRex293 cells transfected with hACSL5 plasmid were selected in culture medium containing 15 µg/ml Blasticidin and 150 µg/ml Hygromycin. For cell-based assays, stable transfected hACSL5 cells were seeded onto a 96-well plate at 30-50k/well and incubated overnight. For the inducible system, […] tetracycline (or doxycycline) was added to culture medium of FlpIn TRex293 hACSL5 cells on the day before the assay to induce expression of hACSL5. The next day, growth media was replaced with culture medium without FBS and glucose (DMEM glucose (-), ThermoFisher) and cells were incubated for an hour before treating cells with serial diluted compounds containing 20 µM B12FA (ThermoFisher) for another 3 hours in the above medium. Cells were then fixed in 4% formaldehyde for 10 minutes and washed twice with PBS. The plate was read using the Cytation 5 imaging system with an excitation wavelength of 485 nm and observed emissions at 630 nm and 520 nm. The percentage of inhibition was calculated as: […]
wherein A is the ratio of emission intensities at 630 nm/520 nm in the absence of inhibitor (maximum ratio); B is the ratio of the intensities at those wavelengths in the presence of […] of the test compound or non-induced cells (minimum ratio); and X is the ratio of the intensities at a given compound concentration.
Concentration-response titration points for each compound tested were filled to the Hill equation yielding concentrations of half maximal inhibition […] and maximal inhibition values.
Target sequence in this assay (Q9ULC5 whole entry): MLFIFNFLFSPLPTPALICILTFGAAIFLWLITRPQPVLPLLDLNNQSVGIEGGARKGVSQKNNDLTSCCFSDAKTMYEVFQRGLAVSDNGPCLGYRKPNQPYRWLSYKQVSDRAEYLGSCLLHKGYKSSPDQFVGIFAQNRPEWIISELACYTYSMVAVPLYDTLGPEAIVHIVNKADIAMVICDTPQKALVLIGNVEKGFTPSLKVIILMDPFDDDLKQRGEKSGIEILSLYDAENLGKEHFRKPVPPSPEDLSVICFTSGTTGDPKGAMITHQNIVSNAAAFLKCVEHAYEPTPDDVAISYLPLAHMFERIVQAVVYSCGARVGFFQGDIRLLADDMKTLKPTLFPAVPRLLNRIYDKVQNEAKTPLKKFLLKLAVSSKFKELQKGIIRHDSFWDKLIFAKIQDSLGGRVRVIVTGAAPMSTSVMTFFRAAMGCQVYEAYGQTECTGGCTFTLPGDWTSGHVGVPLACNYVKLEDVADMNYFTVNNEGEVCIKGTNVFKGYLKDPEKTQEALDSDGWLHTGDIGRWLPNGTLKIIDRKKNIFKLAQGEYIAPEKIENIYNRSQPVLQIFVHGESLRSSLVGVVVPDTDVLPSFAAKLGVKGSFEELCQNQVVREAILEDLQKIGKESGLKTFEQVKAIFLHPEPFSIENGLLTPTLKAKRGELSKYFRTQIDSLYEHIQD

Experiment [2] has as its target T1, hACSL5. Nature of the experiment: Human ACSL5 coupled enzyme Amplex Red assay. The conditions noted are these: read-out: hACSL5 IC50. Type of experiment: biochemical. The method in brief:
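C-terminally His-tagged ACSL5 (33-683) from sf9 cells, 20 nM, was preincubated with compound in MOPS-NaOH pH 7.6 with MgCl2, peroxidase and acyl-CoA oxidase. Reactions were started with 25 μM oleate, 30 μM CoA, 1 mM ATP and 50 μM Amplex Red; fluorescence (535/590 nm) after 10 minutes at 25° C. was fitted to the Hill equation for IC50 and maximal inhibition.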
Target sequence in this assay (Q9ULC5 33-683): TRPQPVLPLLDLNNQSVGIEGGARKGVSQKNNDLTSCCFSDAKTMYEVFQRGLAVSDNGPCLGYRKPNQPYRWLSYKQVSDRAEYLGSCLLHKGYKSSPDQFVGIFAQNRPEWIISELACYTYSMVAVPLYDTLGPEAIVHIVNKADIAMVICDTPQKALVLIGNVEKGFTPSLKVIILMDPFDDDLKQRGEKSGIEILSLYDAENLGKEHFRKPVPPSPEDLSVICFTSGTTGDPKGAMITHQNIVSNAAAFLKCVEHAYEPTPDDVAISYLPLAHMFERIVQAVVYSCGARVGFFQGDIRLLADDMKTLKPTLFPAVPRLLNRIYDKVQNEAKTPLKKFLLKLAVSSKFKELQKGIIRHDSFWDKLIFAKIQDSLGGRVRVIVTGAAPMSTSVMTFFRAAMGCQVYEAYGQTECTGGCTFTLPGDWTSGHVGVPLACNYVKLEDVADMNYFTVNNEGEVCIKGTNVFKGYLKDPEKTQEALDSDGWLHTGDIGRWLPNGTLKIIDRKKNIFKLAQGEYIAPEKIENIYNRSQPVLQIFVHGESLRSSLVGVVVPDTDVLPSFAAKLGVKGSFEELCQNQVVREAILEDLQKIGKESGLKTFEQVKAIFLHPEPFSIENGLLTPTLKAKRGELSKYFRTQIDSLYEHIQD

The structures appear in SMILES notation. pIC50: −log10 of the molar value. Bounds are passed on as bounds.

One may read the pIC50 as −log10 of the IC50, conventionally taken in molar units.

On to `CC[C@@H](Oc1ccc(C(=O)NS(=O)(=O)c2ccc(OC3CCN(C)CC3)nc2)c(F)c1F)c1ccc(OCC2CC2)cn1` [(R)-4-(1-(5-(cyclopropylmethoxy)pyridin-2-yl)propoxy)-2,3-difluoro-N-((6-((1-methylpiperidin-4-yl)oxy)pyridin-3-yl)sulfonyl)benzamide], for which the values for the negative-log IC50 (pIC50) against hACSL5 [1] and on hACSL5 [2] were 6.30 to 7.00 and > 7.00, respectively.
Taken in the same sequence, the figures for `CC[C@@H](Oc1ccc(C(=O)NS(=O)(=O)N2CCN(C)[C@@H](C)C2)c(F)c1F)c1ccc(Oc2ccccn2)cn1` [N-(((S)-3,4-dimethylpiperazin-1-yl)sulfonyl)-2,3-difluoro-4-((R)-1-(5-(pyridin-2-yloxy)pyridin-2-yl)propoxy)benzamide] were > 7.00 and > 7.00.
Take `CC[C@@H](Oc1ccc(C(=O)NS(=O)(=O)N2CCC(OC3CCN(C)CC3)CC2)cc1C(F)(F)F)c1ccc(Oc2ccccn2)cn1` [(R)-N-((4-((1-methylpiperidin-4-yl)oxy)piperidin-1-yl)sulfonyl)-4-(1-(5-(pyridin-2-yloxy)pyridin-2-yl)propoxy)-3-(trifluoromethyl)benzamide]: the pIC50 against hACSL5 [1] and at hACSL5 [2] was > 7.00 throughout.
In the case of `CC[C@@H](Oc1ccc(C(=O)NS(=O)(=O)N2CCN(CC(C)(C)O)CC2)c(F)c1F)c1ccc(OCC2CC2)cn1` [(R)-4-(1-(5-(cyclopropylmethoxy)pyridin-2-yl)propoxy)-2,3-difluoro-N-((4-(2-hydroxy-2-methylpropyl)piperazin-1-yl)sulfonyl)benzamide], the pIC50 is 6.30 to 7.00 against hACSL5 [1] and > 7.00 on hACSL5 [2].
As to `CC[C@@H](Oc1ccc(C(=O)NS(=O)(=O)N2CCN(C)CC2)c(F)c1F)c1ccc(OC2CC(OC)C2)cn1` (stereo partly drawn) [2,3-difluoro-4-((R)-1-(5-((1R,3R)-3-methoxycyclobutoxy)pyridin-2-yl)propoxy)-N-((4-methylpiperazin-1-yl)sulfonyl)benzamide], the negative-log IC50 (pIC50) on hACSL5 [1] and at hACSL5 [2] was 6.30 to 7.00 in each case.
For `CC[C@@H](Oc1ccc(C(=O)NS(=O)(=O)c2ccc(O[C@H]3CCN(C)C3)cc2)c(F)c1F)c1ccc(OCC2CC2)cn1` [4-((R)-1-(5-(cyclopropylmethoxy)pyridin-2-yl)propoxy)-2,3-difluoro-N-((4-(((S)-1-methylpyrrolidin-3-yl)oxy)phenyl)sulfonyl)benzamide], the negative logarithm of the IC50 (pIC50) against hACSL5 [1] was 6.30 to 7.00; at hACSL5 [2], > 7.00.
Taken in the same sequence, the figures for `CC[C@@H](Oc1ccc(C(=O)NS(=O)(=O)N2CCN(CC3CC3)CC2)c(F)c1F)c1ccc(OCC2CC2)cn1` [(R)-4-(1-(5-(cyclopropylmethoxy)pyridin-2-yl)propoxy)-N-((4-(cyclopropylmethyl)piperazin-1-yl)sulfonyl)-2,3-difluorobenzamide] were 6.30 to 7.00 and > 7.00.
Turning to `CC[C@@H](Oc1ccc(C(=O)NS(=O)(=O)c2ccc(NC3CCN(C)CC3)nc2)c(F)c1F)c1ccc(OCC2CC2)cn1` [(R)-4-(1-(5-(cyclopropylmethoxy)pyridin-2-yl)propoxy)-2,3-difluoro-N-((6-((1-methylpiperidin-4-yl)amino)pyridin-3-yl)sulfonyl)benzamide], the pIC50 is < 6.30 against hACSL5 [1] and > 7.00 at hACSL5 [2].
For the compound `CC[C@@H](Oc1ccc(C(=O)NS(=O)(=O)N2CC3(CC(OCCN(C)C)C3)C2)c(F)c1F)c1ccc(OCC2CC2)cn1` [(R)-4-(1-(5-(cyclopropylmethoxy)pyridin-2-yl)propoxy)-N-((6-(2-(dimethylamino)ethoxy)-2-azaspiro[3.3]heptan-2-yl)sulfonyl)-2,3-difluorobenzamide], the negative-log IC50 (pIC50) on hACSL5 [1] is < 6.30; at hACSL5 [2], 6.30 to 7.00.
In the same order, the values of `CC[C@@H](Oc1ccc(C(=O)NS(=O)(=O)N2CC3(CC(OC4CCN(C)CC4)C3)C2)c(F)c1F)c1ccc(OCC2CC2)cn1` [(R)-4-(1-(5-(cyclopropylmethoxy)pyridin-2-yl)propoxy)-2,3-difluoro-N-((6-((1-methylpiperidin-4-yl)oxy)-2-azaspiro[3.3]heptan-2-yl)sulfonyl)benzamide] are < 6.30 and 6.30 to 7.00.
Taken in the same sequence, the figures for `CC[C@@H](Oc1ccc(C(=O)NS(=O)(=O)N2CCN(CC)CC2)c(F)c1F)c1ccc(OCC2CC2)cn1` [(R)-4-(1-(5-(cyclopropylmethoxy)pyridin-2-yl)propoxy)-N-((4-ethylpiperazin-1-yl)sulfonyl)-2,3-difluorobenzamide] were > 7.00 and > 7.00.
Taken in the same sequence, the figures for `CC[C@@H](Oc1ccc(C(=O)NS(=O)(=O)c2ccc(OCCN3CCCCC3)cc2)c(F)c1F)c1ccc(OCC2CC2)cn1` [(R)-4-(1-(5-(cyclopropylmethoxy)pyridin-2-yl)propoxy)-2,3-difluoro-N-((4-(2-(piperidin-1-yl)ethoxy)phenyl)sulfonyl)benzamide] were > 7.00 and > 7.00.
In the case of `CC[C@@H](Oc1ccc(C(=O)NS(=O)(=O)N2CCC(OC3CCN(C)CC3)CC2)c(F)c1F)c1ccc(OC2CC(OC)C2)cn1` (stereo partly drawn) [2,3-difluoro-4-((R)-1-(5-((1R,3R)-3-methoxycyclobutoxy)pyridin-2-yl)propoxy)-N-((4-((1-methylpiperidin-4-yl)oxy)piperidin-1-yl)sulfonyl)benzamide], the pIC50 was 6.30 to 7.00 at hACSL5 [1] and > 7.00 on hACSL5 [2].
`CC[C@@H](Oc1ccc(C(=O)NS(=O)(=O)N2CCN(C3CC3)CC2)c(F)c1F)c1ccc(Oc2ccccn2)cn1` [(R)-N-((4-cyclopropylpiperazin-1-yl)sulfonyl)-2,3-difluoro-4-(1-(5-(pyridin-2-yloxy)pyridin-2-yl)propoxy)benzamide]: the negative logarithm of the IC50 (pIC50) against hACSL5 [1] and on hACSL5 [2] was > 7.00 in each case.
For `CC[C@@H](Oc1ccc(C(=O)NS(=O)(=O)N2CCN(C)CC2)cc1C(F)(F)F)c1ccc(Oc2ccccn2)cn1` [(R)-N-((4-methylpiperazin-1-yl)sulfonyl)-4-(1-(5-(pyridin-2-yloxy)pyridin-2-yl)propoxy)-3-(trifluoromethyl)benzamide], the negative-log IC50 (pIC50) against hACSL5 [1] and at hACSL5 [2] was > 7.00 throughout.
Regarding `CC[C@@H](Oc1ccc(C(=O)NS(=O)(=O)c2cnc(OC3CCN(C)CC3)nc2)c(F)c1F)c1ccc(OCC2CC2)cn1` [(R)-4-(1-(5-(cyclopropylmethoxy)pyridin-2-yl)propoxy)-2,3-difluoro-N-((2-((1-methylpiperidin-4-yl)oxy)pyrimidin-5-yl)sulfonyl)benzamide], the values for the pIC50 against hACSL5 [1] and on hACSL5 [2] were < 6.30 and > 7.00, respectively.
As for `CC[C@@H](Oc1ccc(C(=O)NS(=O)(=O)c2ccc(OCCN(C)C)cc2)cc1C(F)(F)F)c1ccc(Oc2ccccn2)cn1` [(R)-N-((4-(2-(dimethylamino)ethoxy)phenyl)sulfonyl)-4-(1-(5-(pyridin-2-yloxy)pyridin-2-yl)propoxy)-3-(trifluoromethyl)benzamide], the pIC50 against hACSL5 [1] and on hACSL5 [2] was > 7.00 in each case.
`CC[C@@H](Oc1ccc(C(=O)NS(=O)(=O)c2ccc(NC3CCN(C)CC3)cn2)c(F)c1F)c1ccc(OCC2CC2)cn1` [(R)-4-(1-(5-(cyclopropylmethoxy)pyridin-2-yl)propoxy)-2,3-difluoro-N-((5-((1-methylpiperidin-4-yl)amino)pyridin-2-yl)sulfonyl)benzamide]: the negative-log IC50 (pIC50) against hACSL5 [1] is < 6.30; on hACSL5 [2], > 7.00.
Taken in the same sequence, the figures for `CC[C@@H](Oc1ccc(C(=O)NS(=O)(=O)c2ccc(NCCN3CCCC3)nc2)c(F)c1F)c1ccc(OCC2CC2)cn1` [(R)-4-(1-(5-(cyclopropylmethoxy)pyridin-2-yl)propoxy)-2,3-difluoro-N-((6-((2-(pyrrolidin-1-yl)ethyl)amino)pyridin-3-yl)sulfonyl)benzamide] were < 6.30 and > 7.00.
In the same order, the values of `CC[C@@H](Oc1ccc(C(=O)NS(=O)(=O)N2CCC(OC3CCN(CC(C)(C)O)CC3)CC2)c(F)c1F)c1ccc(OCC2CC2)cn1` [(R)-4-(1-(5-(cyclopropylmethoxy)pyridin-2-yl)propoxy)-2,3-difluoro-N-((4-((1-(2-hydroxy-2-methylpropyl)piperidin-4-yl)oxy)piperidin-1-yl)sulfonyl)benzamide] are 6.30 to 7.00 and > 7.00.
As to `CC[C@@H](Oc1ccc(C(=O)NS(=O)(=O)C2CCN(C)CC2)c(F)c1F)c1ccc(OCC2CC2)cn1` [(R)-4-(1-(5-(cyclopropylmethoxy)pyridin-2-yl)propoxy)-2,3-difluoro-N-((1-methylpiperidin-4-yl)sulfonyl)benzamide], the pIC50 against hACSL5 [1] is < 6.30; at hACSL5 [2], 6.30 to 7.00.

For the origin of these results see patent US20250275959A1, “COMPOUNDS AND METHODS OF THEIR USE” (LEXICON PHARMACEUTICALS, INC., priority 2024, published 2025).
